Data set [1] concerns Madurella mycetomatis. Description: Antifungal activity against Madurella mycetomatis MM55 by XTT assay. Format: functional, organism-based.
Data set [2] deals with Madurella mycetomatis. Description: Antifungal activity against Madurella mycetomatis P1 by XTT assay. Format: functional.
In data set [3] the test system is Madurella mycetomatis. Description: Antifungal activity against Madurella mycetomatis SO1 by XTT assay. Type of data set: functional. On the technique in general: Tetrazolium assays rely on reduction of a dye to a coloured formazan, in cell work by metabolically active cells.
The test system of data set [4] is Madurella mycetomatis. Description: Antifungal activity against Madurella mycetomatis I1 by XTT assay. Type of data set: functional.
Data set [5] relates to Madurella mycetomatis. Description: Antifungal activity against Madurella mycetomatis I11 by XTT assay. Format: functional.
The nature of data set [6]: Selectivity index, ratio of IC50 for mouse NIH3T3 cells to IC50 for Madurella mycetomatis MM55. Format: toxicity. The following applies: read-out: Ratio IC50.
Data set [7] concerns Madurella mycetomatis. Description: Antifungal activity against Madurella mycetomatis AL1 by XTT assay. Format: functional.
Data set [8] concerns Madurella mycetomatis. Description: Antifungal activity against Madurella mycetomatis I3 by XTT assay. Type of data set: functional.
Data set [9] relates to Madurella mycetomatis. Description: Antifungal activity against Madurella mycetomatis MM50 by XTT assay. Type of data set: functional.
The nature of data set [10]: Cytotoxicity against mouse NIH3T3 cells incubated for 5 days by MTT assay. Format: toxicity, cell-based.
Data set [11] has as its system Madurella mycetomatis. Description: Antifungal activity against Madurella mycetomatis Peru72012 by XTT assay. Format: functional.
Data set [12] relates to Madurella mycetomatis. Description: Antifungal activity against Madurella mycetomatis CBS247.48 by XTT assay. Format: functional.

pIC50: −log10 of the molar value. In brackets after ≈: the same amount, converted by molar mass.

The term pIC50 denotes the IC50 on a negative log10 scale, so that one unit is a factor of ten. Low values mean a large IC50, high ones a small IC50. The MIC is the lowest concentration that inhibits growth of the organism. Read a low MIC as greater potency. One may read the IC50 as the point on the concentration scale where inhibition reaches its midpoint. A low value points to greater potency in that assay. Take `CN1CCN(c2cc(-c3ccc4[nH]ccc4c3)c3nc(-c4ccc(F)cc4)cn3n2)CC1`: in the data set on Madurella mycetomatis [1] (Madurella mycetomatis, MM55), the pIC50 was 5.47. Also, the MIC with Madurella mycetomatis [1] (Madurella mycetomatis, MM55) is 16 µM (≈ 6.82 µg/mL); in the data set with Madurella mycetomatis [2], 8 µM (≈ 3.41 µg/mL); in the data set with Madurella mycetomatis [3], 8 µM (≈ 3.41 µg/mL); against Madurella mycetomatis [4] it was 4 µM (≈ 1.71 µg/mL); against Madurella mycetomatis [5], 4 µM (≈ 1.71 µg/mL); with Madurella mycetomatis [7] it was 8 µM (≈ 3.41 µg/mL). Further, the MIC was determined as 8 µM (≈ 3.41 µg/mL) against Madurella mycetomatis [8], 4 µM (≈ 1.71 µg/mL) against Madurella mycetomatis [9], 4 µM (≈ 1.71 µg/mL) against Madurella mycetomatis [11] and 4 µM (≈ 1.71 µg/mL) with Madurella mycetomatis [12]. Moreover, the selectivity ratio in [6] is 2.6. This compound also showed an IC50 at 5 days in [10] of 9 µM.

Compound `CN1CCN(c2cc(-c3ccsc3)c3nc(-c4cccc(F)c4)cn3n2)CC1` gave a pIC50 in the data set with Madurella mycetomatis [1] (Madurella mycetomatis, MM55) of 5.68. Besides, the MIC came out at 8 µM (≈ 3.15 µg/mL) against Madurella mycetomatis [1] (Madurella mycetomatis, MM55); 8 µM (≈ 3.15 µg/mL) in the data set on Madurella mycetomatis [2]; 8 µM (≈ 3.15 µg/mL) against Madurella mycetomatis [3]; 8 µM (≈ 3.15 µg/mL) against Madurella mycetomatis [4]; 8 µM (≈ 3.15 µg/mL) with Madurella mycetomatis [5]; 8 µM (≈ 3.15 µg/mL) in the data set on Madurella mycetomatis [7]. In addition, the MIC against Madurella mycetomatis [8], against Madurella mycetomatis [9], against Madurella mycetomatis [11] and against Madurella mycetomatis [12] was 8 µM (≈ 3.15 µg/mL) in each case. Also, in data set [6], the selectivity ratio amounted to 2.5. For the same compound, in [10], it took 11.9 µM to reach half-maximal inhibition (IC50 at 5 days).

On to `CN1CCN(c2cc(-c3ccsc3)c3nc(-c4ccccc4)cn3n2)CC1`, for which, in the data set with Madurella mycetomatis [1] (Madurella mycetomatis, MM55), the negative logarithm of the IC50 (pIC50) was 5.46. The MIC amounted to 8 µM (≈ 3 µg/mL) against Madurella mycetomatis [1] (Madurella mycetomatis, MM55); 8 µM (≈ 3 µg/mL) against Madurella mycetomatis [2]; 8 µM (≈ 3 µg/mL) against Madurella mycetomatis [3]; 8 µM (≈ 3 µg/mL) against Madurella mycetomatis [4]; 4 µM (≈ 1.5 µg/mL) with Madurella mycetomatis [5]; 8 µM (≈ 3 µg/mL) against Madurella mycetomatis [7]. Further, the MIC against Madurella mycetomatis [8], in the data set on Madurella mycetomatis [9], against Madurella mycetomatis [11] and with Madurella mycetomatis [12] was 8 µM (≈ 3 µg/mL) in each case. The selectivity ratio in [6] stood at 5.1. The compound further returned an IC50 at 5 days in data set [10] of 10.2 µM.

In the data set with Madurella mycetomatis [1] (Madurella mycetomatis, MM55), `CN1CCN(c2cc(-c3ccsc3)c3nc(-c4ccccc4F)cn3n2)CC1` showed a pIC50 of 5.72. Besides, the MIC was 8 µM (≈ 3.15 µg/mL) against Madurella mycetomatis [1] (Madurella mycetomatis, MM55); 8 µM (≈ 3.15 µg/mL) against Madurella mycetomatis [2]; 8 µM (≈ 3.15 µg/mL) in the data set with Madurella mycetomatis [3]; 8 µM (≈ 3.15 µg/mL) with Madurella mycetomatis [4]; 8 µM (≈ 3.15 µg/mL) with Madurella mycetomatis [5]; 8 µM (≈ 3.15 µg/mL) against Madurella mycetomatis [7]. For the same compound, the MIC was found to be 8 µM (≈ 3.15 µg/mL) against Madurella mycetomatis [8], 8 µM (≈ 3.15 µg/mL) in the data set on Madurella mycetomatis [9], 16 µM (≈ 6.3 µg/mL) against Madurella mycetomatis [11] and 8 µM (≈ 3.15 µg/mL) with Madurella mycetomatis [12]. Also, the selectivity ratio in data set [6] is 3.7. Moreover, inhibition in [10] was half-maximal at 14.6 µM (IC50 at 5 days).

In turn, `CN1CCN(c2cc(-c3ccc4cc[nH]c4c3)c3nc(-c4ccc(F)cc4)cn3n2)CC1` showed a pIC50 with Madurella mycetomatis [1] (Madurella mycetomatis, MM55) of 5.15.

Turning to `OCCN1CCN(c2cc(-c3cnc(N4CCN(CCO)CC4)nc3)c3nc(-c4ccccc4F)cn3n2)CC1`, the pIC50 in the data set on Madurella mycetomatis [1] (Madurella mycetomatis, MM55) was 5.42. Moreover, the MIC against Madurella mycetomatis [1] (Madurella mycetomatis, MM55) was 8 µM (≈ 4.38 µg/mL); with Madurella mycetomatis [2], more than 16 µM; against Madurella mycetomatis [3], more than 16 µM; with Madurella mycetomatis [4], 16 µM (≈ 8.76 µg/mL); against Madurella mycetomatis [5], more than 16 µM; with Madurella mycetomatis [7] it was more than 16 µM. In addition, the MIC in the data set with Madurella mycetomatis [8] is more than 16 µM; against Madurella mycetomatis [9], more than 16 µM; against Madurella mycetomatis [11], 16 µM (≈ 8.76 µg/mL); in the data set with Madurella mycetomatis [12] it was more than 16 µM. The selectivity ratio in data set [6] is 0.8. Besides, the IC50 at 5 days in data set [10] was 1.4 µM.

Compound `OCCN1CCN(c2cc(-c3ccsc3)c3nc(-c4cccc(F)c4)cn3n2)CC1` showed a negative logarithm of the IC50 (pIC50) in the data set on Madurella mycetomatis [1] (Madurella mycetomatis, MM55) of 6.05. For the same compound, the MIC worked out at 4 µM (≈ 1.69 µg/mL) against Madurella mycetomatis [1] (Madurella mycetomatis, MM55); 4 µM (≈ 1.69 µg/mL) in the data set on Madurella mycetomatis [2]; 8 µM (≈ 3.39 µg/mL) in the data set on Madurella mycetomatis [3]; 8 µM (≈ 3.39 µg/mL) in the data set on Madurella mycetomatis [4]; 4 µM (≈ 1.69 µg/mL) in the data set on Madurella mycetomatis [5]; 8 µM (≈ 3.39 µg/mL) in the data set on Madurella mycetomatis [7]. For the same compound, the MIC in the data set with Madurella mycetomatis [8] came to 8 µM (≈ 3.39 µg/mL); in the data set on Madurella mycetomatis [9], 8 µM (≈ 3.39 µg/mL); against Madurella mycetomatis [11], 8 µM (≈ 3.39 µg/mL); with Madurella mycetomatis [12], 4 µM (≈ 1.69 µg/mL). In data set [6], the selectivity ratio came out at 8.2. Besides, the IC50 at 5 days in [10] was found to be 10.7 µM.

Consider `CCC(C)n1ncn(-c2ccc(N3CCN(c4ccc(OCC5COC(Cn6cncn6)(c6ccc(Cl)cc6Cl)O5)cc4)CC3)cc2)c1=O` (stereo not drawn) [ITRACONAZOLE], for which, in the data set with Madurella mycetomatis [1] (Madurella mycetomatis, MM55), the pIC50 is 5.96. In addition, the MIC came to 0.5 µM (≈ 0.353 µg/mL) in the data set with Madurella mycetomatis [1] (Madurella mycetomatis, MM55); 0.25 µM (≈ 0.176 µg/mL) with Madurella mycetomatis [2]; 0.25 µM (≈ 0.176 µg/mL) against Madurella mycetomatis [3]; 8 µM (≈ 5.65 µg/mL) in the data set with Madurella mycetomatis [4]; 0.5 µM (≈ 0.353 µg/mL) with Madurella mycetomatis [5]; 0.06 µM (≈ 0.0423 µg/mL) in the data set on Madurella mycetomatis [7]. Further, the MIC with Madurella mycetomatis [8] came to 1 µM (≈ 0.706 µg/mL); in the data set with Madurella mycetomatis [9] it was 1 µM (≈ 0.706 µg/mL); against Madurella mycetomatis [11], 0.5 µM (≈ 0.353 µg/mL); in the data set with Madurella mycetomatis [12] it was 2 µM (≈ 1.41 µg/mL). Moreover, the selectivity ratio in data set [6] came to 1.4. Besides, the midpoint of inhibition in data set [10], the IC50 at 5 days, lay at 13.7 µM.

`CN1CCN(c2cc(-c3ccsc3)c3nc(-c4ccc(F)cc4)cn3n2)CC1` [listing 1 of 2 here] gave a pIC50 in the data set on Madurella mycetomatis [1] (Madurella mycetomatis, MM55) of 5.30.

`CN1CCN(c2cc(-c3ccsc3)c3nc(-c4ccc(F)cc4)cn3n2)CC1` [listing 2 of 2 here] showed a pIC50 with Madurella mycetomatis [1] of 5.26.

`CN1CCN(c2cc(-c3cccc4[nH]ccc34)c3nc(-c4ccc(F)cc4)cn3n2)CC1`: the pIC50 with Madurella mycetomatis [1] was 4.97.

Regarding `CN1CCN(c2cc(-c3ccc(N)nc3)c3nc(-c4ccccc4F)cn3n2)CC1`, the pIC50 in the data set with Madurella mycetomatis [1] (Madurella mycetomatis, MM55) is 5.01.

`COc1ccccc1-c1cn2nc(N3CCN(C)CC3)cc(-c3cccc4[nH]ccc34)c2n1` gave a pIC50 in the data set on Madurella mycetomatis [1] (Madurella mycetomatis, MM55) of less than 4.80.

As to `CN1CCN(c2cc(-c3cnn(C)c3)c3nc(-c4ccc(F)cc4)cn3n2)CC1`, the pIC50 with Madurella mycetomatis [1] is 5.02.

The values above are taken from ChEMBL document CHEMBL5614400, “Emerging therapeutics: The imidazo[1,2-b]pyridazine scaffold as a novel drug candidate for eumycetoma, a neglected tropical disease” (Eur J Med Chem, 2024).
